Reference: patent US20130197043A1, “USE OF THE FETAL REPROGRAMMING OF A PPAR AGONIST” (SNU R&DB FOUNDATION, priority 2010, published 2013)

Tests used:
[1] = test system: mice subjected to fetal reprogramming; assay: Treadmill endurance test of mice subjected to fetal reprogramming; type: in vivo
Protocol: Before the experiment, mice were exercised for 5 minutes at a speed of 7 meters/min for two days so as to be adapted to exercising equipment. On day 3, the main experiment was conducted. As for the method for experiment, the mice were made to run at a speed of 10 meter/min for 60 minutes, and after that, the speed was increased at 1 meter/min once every 15 minutes until the maximum speed reaches 15 meters/min. As for the male mice, the running time was increased by 2.9 fold ([…], P<0.0001, n=6) and the running distance was increased by 3.0 fold (9927±1168 versus 3303±394 m, P<0.0001) in the PPAR δ agonist (CMDD1111)-administered mouse group than the control mouse group.
The Experiment using pregnant C57BL/6 mice was conducted in order to verify an endurance enhancement effect by fetal reprogramming of CMDD1226. […]
The experiment for verifying the fetal reprogramming effect of GW501516 and determining the optimum administration period thereof was conducted. The experiment method was shown in FIG. 1, and the experiment was conducted with respect to three kinds of administration periods (gestation period, lactation period, and both of gestation and lactation periods). As the experiment result, the group administered with PPAR δ agonist only during the gestation period had 2.6-fold and 3.2-fold increases in the running time and the running distance, respectively, and the group administered with PPAR δ agonist only during the lactation period had 2.4-fold and 3.0-fold increases in the running time and the running distance, respectively, as compared with the control group. The group administered with PPAR δ agonist during both the gestation and lactation periods had the most obvious increase in endurance, and had 5.1-fold and 6.6-fold increases as compared with the control group (FIG. 22).
The animal test was conducted in order to verify the muscle endurance enhancement and muscular function improvement effects of the material according to the present invention. […] […] The test using a treadmill was conducted in order to confirm the effect of this muscular fiber change on muscle endurance enhancement and muscular function improvement.

[2] = biological target: T1, hPPAR δ (Homo sapiens, UniProt Q03181); assay: Transfection assay in CV-1 cells, hPPAR δ; type: cell-based; settings: luciferase reporter
T1 construct: expressed in transfected cells; host or cells: CV-1 cells
T1 sequence (Q03181 1-441): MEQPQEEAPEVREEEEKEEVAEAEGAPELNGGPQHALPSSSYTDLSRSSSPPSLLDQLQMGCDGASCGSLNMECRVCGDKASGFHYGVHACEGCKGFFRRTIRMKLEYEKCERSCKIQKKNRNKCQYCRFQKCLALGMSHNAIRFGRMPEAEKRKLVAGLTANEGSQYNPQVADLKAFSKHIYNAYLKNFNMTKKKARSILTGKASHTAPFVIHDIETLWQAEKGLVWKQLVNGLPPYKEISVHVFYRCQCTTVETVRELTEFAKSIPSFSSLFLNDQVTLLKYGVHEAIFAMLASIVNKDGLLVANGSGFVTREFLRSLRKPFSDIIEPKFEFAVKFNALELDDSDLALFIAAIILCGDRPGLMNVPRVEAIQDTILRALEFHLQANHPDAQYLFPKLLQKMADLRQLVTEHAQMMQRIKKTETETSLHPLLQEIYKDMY
Protocol: (§1) This assay was conducted by using CV-1 cells. The cells were cultured on a 96-well plate with a DMEM medium containing 10% FBS, DBS (delipidated), and 1% penicillin/streptomycin in 37° C. of an incubator 5% of carbon dioxide. Test was conducted in four stages of cell inoculation, transfection, treatment with the developed material, and result confirmation. The CV-1 cells were inoculated on the 96-well plate at a cell density at 5,000 cells/well, and after 24 hours, transfection was performed. PPARs plasmid DNA, reporter DNA, and β-galactosidase DNA were mixed with a transfection reagent, and then used to treat the cells. The developed material was dissolved in dimethylsulfoxide (DMSO), and then was used to treat the cells by using media at various concentrations. After 24 hours of culturing in an incubator, the cells were lysed with a lysis buffer and luciferase activity and β-galactosidase activity were measured using a luminometer and a microplate reader. The measured luciferase value was calibrated with the β-galactosidase value, and this value was depicted on a graph and EC50 was determined.

[3] = biological target: T2, hPPARg (Homo sapiens, UniProt P37231); assay: Transfection assay in CV-1 cells, hPPARg; type: cell-based; settings: luciferase reporter
T2 construct: expressed in transfected cells; host or cells: CV-1 cells
T2 sequence (P37231 1-505): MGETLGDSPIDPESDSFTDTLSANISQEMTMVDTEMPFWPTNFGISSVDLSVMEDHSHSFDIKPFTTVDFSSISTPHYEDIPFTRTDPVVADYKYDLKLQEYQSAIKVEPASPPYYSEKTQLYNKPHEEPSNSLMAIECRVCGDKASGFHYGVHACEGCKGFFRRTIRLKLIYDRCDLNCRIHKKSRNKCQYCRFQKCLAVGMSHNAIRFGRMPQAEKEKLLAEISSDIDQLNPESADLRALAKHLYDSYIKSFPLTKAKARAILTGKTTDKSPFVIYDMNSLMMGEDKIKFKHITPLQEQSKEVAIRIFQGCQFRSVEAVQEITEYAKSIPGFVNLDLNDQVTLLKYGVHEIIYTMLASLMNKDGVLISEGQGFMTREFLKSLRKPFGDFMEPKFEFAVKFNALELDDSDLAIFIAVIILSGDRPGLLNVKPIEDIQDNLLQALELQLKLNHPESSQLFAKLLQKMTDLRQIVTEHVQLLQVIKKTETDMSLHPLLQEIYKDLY
Protocol: as §1

[4] = biological target: T3, hPPARa (Homo sapiens, UniProt Q07869); assay: Transfection assay in CV-1 cells, hPPARa; type: cell-based; settings: luciferase reporter
T3 construct: expressed in transfected cells; host or cells: CV-1 cells
T3 sequence (Q07869 1-468): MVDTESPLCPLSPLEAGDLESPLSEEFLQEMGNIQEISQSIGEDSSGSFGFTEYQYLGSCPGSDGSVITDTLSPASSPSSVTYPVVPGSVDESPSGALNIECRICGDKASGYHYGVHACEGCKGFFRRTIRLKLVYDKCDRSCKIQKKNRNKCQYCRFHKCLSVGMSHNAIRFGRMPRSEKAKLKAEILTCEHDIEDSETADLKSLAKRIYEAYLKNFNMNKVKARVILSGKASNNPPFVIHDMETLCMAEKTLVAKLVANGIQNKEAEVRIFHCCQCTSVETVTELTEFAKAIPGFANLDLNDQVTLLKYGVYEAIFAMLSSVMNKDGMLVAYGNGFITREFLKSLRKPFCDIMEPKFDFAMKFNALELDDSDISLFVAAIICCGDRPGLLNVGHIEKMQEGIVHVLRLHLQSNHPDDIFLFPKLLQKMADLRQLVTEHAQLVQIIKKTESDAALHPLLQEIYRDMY
Protocol: as §1

[5] = test system: slow muscle fibers and endurance; settings: cited from earlier work
[6] = test system: HDL in serum; assay: High-density lipoprotein cholesterol (HDL) in serum; type: in vivo; settings: mice fed 10% fat feedstuff over 6 weeks
Text: High-density lipoprotein cholesterol (HDL) has been known to play an important role in treating lipid metabolic disorders such as arteriosclerosis and hyperlipidemia while lowering the cholesterol level of an epidermal cell and mitigating an inflammatory reaction. Serum was separated from the mice fed over a 6-week period of feedstuff containing 10% fat in order to confirm the high-density cholesterol increase effect of Compounds 5 and 9, which were the developed materials of the present invention.

[7] = C57BL/6, maternal 10 mg/kg/day gestation and lactation, 7-week old
[8] = administered during both gestation and lactation periods
[9] = administered only during the gestation period
[10] = administered only during the lactation period

Row | EC50 [2] | EC50 hPPARg [3] | EC50 hPPARa [4] | Compound | further results
1 | – | – | – | Cc1cc(SC(Cc2c(F)cccc2Cl)c2sc(-c3ccc(C(F)(F)F)cc3)nc2C)ccc1OCC(=O)O (stereo not drawn) [CMDD1112] | endurance enhancement effect ([1]; 1 mg/kg/day): not exhibited; endurance enhancement effect ([1]; 2 mg/kg/day): not exhibited; running distance enhancement ([1]; 5 mg/kg/day): 1.5 fold; running time enhancement ([1]; 5 mg/kg/day): 1.4 fold
2 | – | – | – | Cc1cc([Se]C(Cc2ccccc2)c2sc(-c3ccc(C(F)(F)F)cc3)nc2C)ccc1OCC(=O)O (stereo not drawn) [CMDD1226] | increase in the running distance versus control [1, 7]: 2.0 fold; increase in the running time versus control [1, 7]: 1.9 fold
3 | 8.8 nM | ia | ia | Cc1cc(SC(Cc2ccc(-c3cc(F)c(F)c(F)c3)cc2)c2sc(-c3ccc(C(F)(F)F)cc3)nc2C)ccc1OCC(=O)O (stereo not drawn) [Compound 13] | –
4 | 6.4 nM | ia | ia | Cc1cc(SC(Cc2ccc(-c3ccc(C(F)(F)F)cc3)cc2)c2sc(-c3ccc(C(F)(F)F)cc3)nc2C)ccc1OCC(=O)O (stereo not drawn) [Compound 17] | –
5 | 10.6 nM | ia | ia | Cc1cc(SC(Cc2ccc(-c3ccc(C(F)(F)F)cc3)nc2)c2sc(-c3ccc(C(F)(F)F)cc3)nc2C)ccc1OCC(=O)O (stereo not drawn) [Compound 21] | –
6 | 6.1 nM | ia | ia | Cc1cc(SC(Cc2ccc(-c3cccc(C(F)(F)F)c3)cc2)c2sc(-c3ccc(C(F)(F)F)cc3)nc2C)ccc1OCC(=O)O (stereo not drawn) [Compound 25] | –
7 | 4.6 nM | ia | ia | CCOC(=O)COc1ccc(SC(Cc2ccc(-c3ccc(F)c(Cl)c3)cc2)c2sc(-c3ccc(C(F)(F)F)cc3)nc2C)cc1C (stereo not drawn) [Compound 28] | –
8 | 41.4 nM | ia | ia | Cc1cc(SC(Cc2cc(-c3ccc(F)cc3)no2)c2sc(-c3ccc(C(F)(F)F)cc3)nc2C)ccc1OCC(=O)O (stereo not drawn) [Compound 33] | –
9 | – | – | – | Cc1cc(SCc2sc(-c3ccc(C(F)(F)F)cc3)nc2C)ccc1OCC(=O)O [GW501516, reference compound] | increase in the running distance versus control [1, 8]: 6.6 fold; increase in the running time versus control [1, 8]: 5.1 fold; increase in the running distance versus control [1, 9]: 3.2 fold; increase in the running time versus control [1, 9]: 2.6 fold; increase in the running distance versus control [1, 10]: 3.0 fold; increase in the running time versus control [1, 10]: 2.4 fold; improvement in slow muscle fibers and endurance ([5]; administration alone to an adult): did not show improvement; slow muscle fibers and endurance ([5]; simultaneous combination of exercise and administration): generated slow muscle fibers and enhanced endurance; HDL increase in serum [6]: 29%
